Measured values reported in US8592462B2, “Pirfenidone treatment for patients with atypical liver function” (Intermune, Inc., priority 2008, dated 2013).

How the values were obtained:
[1] = one year treatment, chronic pulmonary fibrosis; cited from earlier work
[2] = IPF patients, compassionate use; cited from earlier work
[3] = Study of 345 idiopathic pulmonary fibrosis patients on pirfenidone 2403 mg/day: liver function test (AST/ALT) abnormalities and response to dosing regimen; assay type: in vivo; design: key to Grade of AST or ALT abnormality after dose modification / Grade of ALT after dose modification / Grade of liver function test at resolution: 0: WNL; 1: >ULN-2.5 × ULN; >2.5-5 × ULN; 3: >5-20 × ULN; 4: >20 × ULN
Method: Patients begin pirfenidone treatment by receiving escalating doses of pirfenidone over a period of 15 days until the full maintenance dose is reached. Specifically, from days 1 to 7, patients are administered one capsule of 267 mg pirfenidone three times per day. During days 8 to 14, patients receive two capsules of 267 mg pirfenidone three times per day. From day 15 onward, patients are treated with three capsules of 267 mg pirfenidone three times per day. Pirfenidone is administered orally, and each dose should be taken with food. If the patient is unable to eat, then the pirfenidone dose should be taken with milk or juice (excluding grapefruit juice).
Once the full maintenance dose is reached, pirfenidone is administered orally to patients three times per day to provide a daily dose of 2403 mg pirfenidone. Each of the three doses of 801 mg pirfenidone includes three capsules of 267 mg pirfenidone each. The contents of the pirfenidone 267 mg capsules are pirfenidone (82.15%); croscarmellose sodium (8.15%); microcrystalline cellulose (7.39%); povidine, USP, EP (1.85%); and magnesium stearate (0.46%).
Patients are treated with pirfenidone for up to 72 weeks. Some patients are treated longer than 72 weeks. At weeks 2, 4, 6, 12, and every 12 weeks (±2 weeks) thereafter during the treatment period, with the exception of week 72 and the treatment completion visit, patients are examined and histories are collected as detailed in the steps below.
4. Clinical laboratory tests are performed, including hematology, serum chemistries, pregnancy tests for women of childbearing capacity, and urinalysis with microscopic examination.
Patients were treated with pirfenidone in accordance with Example 1. […] As described in Example 1, serum chemistry tests were performed at scheduled intervals during the treatment period to monitor various parameters, including biomarkers of liver function such as alanine transaminase (ALT), aspartate transaminase (AST), bilirubin, alkaline phosphate (ALP), and gamma-glutamyl transferase (GGT).
The patient continued to receive the full target dose of 2403 mg/day. While receiving the full target dose, the patient was monitored for AST, ALT, and bilirubin levels.
In one patient, study drug dose was reduced to 1602 mg/day for the remainder of study participation (from Day 51 to Day 602), and the Grade 1 AST or ALT abnormality returned to Grade 0. For the second patient, study drug dose was reduced to 1602 mg/day and then increased to 2403 mg/day for remainder of study participation, and ALT returned to Grade 0. The third patient had study drug dose reduced to 801 mg/day, ultimately completing study at 1602 mg/day, at which time ALT returned to Grade 0. The remaining patients (46 patients) received no dose modification.

[4] = Gamma-glutamyl transferase observed in patients receiving pirfenidone; assay type: in vivo; settings: some patients receiving pirfenidone
Description: In some embodiments, the biomarker of liver function is alanine transaminase, aspartate transaminase, bilirubin, and/or alkaline phosphatase. […] In any of the embodiments described herein, biomarkers of liver function can exclude gamma-glutamyl transferase. In another embodiment, the abnormal level of alanine transaminase, aspartate transaminase, or alkaline phosphatase is greater than about 2.5-fold increased compared to the upper limit of normal (ULN). In a related embodiment, the abnormal level of alanine transaminase, aspartate transaminase, or alkaline phosphatase is greater than about 2.5- to about 5-fold increased compared to the upper limit of normal (ULN), i.e. a “liver function Grade 2 abnormality”. In some embodiments, the abnormal level of bilirubin is greater than about 1.5- to about 3-fold increased compared to the upper limit of normal (ULN), i.e., a “liver function Grade 2 abnormality”.

For `Cc1ccc(=O)n(-c2ccccc2)c1` [pirfenidone, 5-methyl-1-phenyl-2-(1H)-pyridone], the “liver dysfunctions, hematologic abnormalities, allergic or shock reactions during treatment” value [1] is listed as “no liver dysfunctions, hematologic abnormalities, or allergic or shock reactions”, the “adverse events in hematology or blood chemistry” value [2] is listed as “No adverse events in hematology or blood chemistry” and the “Grade of ALT after dose modification” value ([3]; Grade 1 patient, dose reduced to 801 mg/day, completing study at 1602 mg/day) is listed as 0. For the same compound, the “Grade of AST or ALT abnormality after dose modification” value ([3]; Grade 1 patient, dose reduced to 1602 mg/day for remainder of study (Day 51 to Day 602)) was 0, the “Grade of ALT after dose modification” value ([3]; Grade 1 patient, dose reduced to 1602 mg/day, then increased to 2403 mg/day for remainder of study) was 0 and the “Grade of elevation at end of study” value ([3]; Grade 2 patient continued on 2403 mg/day, history of steatosis, Grade 1 before treatment, dose reduced for unrelated reasons (rash, diarrhea)) was 1 (>ULN-2.5 × ULN). The “Grade of AST elevation at the last documented assessment” value ([3]; Grade 2 patient, no dose modification, Grade 1 AST and ALT at baseline) was 1 (>ULN-2.5 × ULN), the “Grade of liver function test at resolution” value ([3]; Grade 2 patient, continued full daily dose of 2403 mg/day) was 0 and the “transaminase levels after re-escalation” value ([3]; Grade 2 patient, treatment temporarily discontinued for acute cerebral artery occlusion, escalated back to 2403 mg/day) was “returned to normal”. For the same compound, the “Grade of abnormality at last documented values” ([3]; Grade 3 patient with Grade 1 at screening and/or baseline, discontinued for lung transplant) was 1 (>ULN-2.5 × ULN), the “AST and ALT elevations at the last documented value” ([3]; Grade 3 patient with Grade 1 at screening and/or baseline, study drug interrupted, then discontinued) was “normalized” and the “patients developing a Grade 2 liver function test abnormality in AST and/or ALT levels” value ([3]; after pirfenidone 2403 mg/day) was “Fifteen”. For the same compound, the “patients developing Grade 3 liver function abnormality in AST and/or ALT levels” value ([3]; after pirfenidone administration) was “Four”, the “patients exhibiting a Grade 1 elevation in AST or ALT levels after pirfenidone administration” value ([3]; of 345 IPF patients, 2403 mg/day, patients without a baseline liver function abnormality) was 49 patients and the “patients with Grade 1 liver function test elevation having a treatment emergent adverse event of increased AST or ALT” value ([3]; of the 49 Grade 1 patients) was “three”. For the same compound, the “patients with Grade 2 abnormality with reported treatment emergent adverse events of increased AST or ALT or hepatitis” value ([3]; of the fifteen Grade 2 patients) was 12 patients, the “patients who discontinued study drug for elevated liver function tests” value ([3]; of the four Grade 3 patients) was “Two” and the “patients who discontinued treatment due to abnormal liver function tests in AST and/or ALT levels” value ([3]; of the twelve Grade 2 patients with adverse event, Grade 2 AST coincided with Grade 3 ALT) was “One”. The “outcome of rechallenge with the full dose” value ([3]; one of the seven Grade 2 patients with permanent dose reduction, rechallenged at 2403 mg/day) was “recurrence of Grade 2 elevation in ALT levels”, the “transaminases at study completion” value ([3]; seven Grade 2 patients with permanent dose reduction (3 at 801 mg/day, 4 at 1602 mg/day)) was “resolution of transaminases, except for one patient that had a Grade 1 elevation at study completion” and the “liver enzymes at study completion” value ([3]; two Grade 2 patients, temporary dose reduction or discontinuation, rechallenged and escalated back to 2403 mg/day) was “normal liver enzymes”. The “resolution of abnormalities after discontinuation” value ([3]; two Grade 3 patients who discontinued for elevated liver function tests, Grade 2 and Grade 3 last documented) was “had not resolved” and the gamma-glutamyl transferase [4] was “Elevated gamma-glutamyl transferase has been observed in some patients receiving pirfenidone, without clinical liver impairment”.
